In patent publication US8754113B2, “Oxadiazole derivative having endothelial lipase inhibitory activity” (Shionogi & Co., Ltd., priority 2009, dated 2014):

What follows are molecules tested against human endothelial lipase (EL) (Homo sapiens (Human), UniProt Q9Y5X9) (assay: Human endothelial lipase (EL) inhibitory activity using human HDL (NEFA release)). Conditions: human HDL 2 mg/ml substrate, 4-hour reaction at 37° C., NEFA readout; read-out: IC50 (50% inhibitory concentration), EL inhibitory activity.
Assay type: biochemical
Experimental: Evaluation Method of Human Endothelial Lipase (EL) Inhibitory Activity Using Human High-Density Lipoprotein (HDL)
After the present compound dissolved in DMSO was added to become 0.5% DMSO to the reaction buffer consisting of 20 mM tris hydrochloric acid (pH7.4), bovine serum albumin (0.5%), calcium chloride (4 mM), sodium chloride (150 mM) and human HDL (2 mg/ml), the EL enzyme was added (total volume was 20 μl).
After 4-hour reaction at 37° C., non-esterified fatty acid (NEFA) generated from HDL by EL was measured with a commercially available assay kit and the amount of NEFA was used as an index of enzyme activity.

Chain of human endothelial lipase (EL) (Q9Y5X9 21-500): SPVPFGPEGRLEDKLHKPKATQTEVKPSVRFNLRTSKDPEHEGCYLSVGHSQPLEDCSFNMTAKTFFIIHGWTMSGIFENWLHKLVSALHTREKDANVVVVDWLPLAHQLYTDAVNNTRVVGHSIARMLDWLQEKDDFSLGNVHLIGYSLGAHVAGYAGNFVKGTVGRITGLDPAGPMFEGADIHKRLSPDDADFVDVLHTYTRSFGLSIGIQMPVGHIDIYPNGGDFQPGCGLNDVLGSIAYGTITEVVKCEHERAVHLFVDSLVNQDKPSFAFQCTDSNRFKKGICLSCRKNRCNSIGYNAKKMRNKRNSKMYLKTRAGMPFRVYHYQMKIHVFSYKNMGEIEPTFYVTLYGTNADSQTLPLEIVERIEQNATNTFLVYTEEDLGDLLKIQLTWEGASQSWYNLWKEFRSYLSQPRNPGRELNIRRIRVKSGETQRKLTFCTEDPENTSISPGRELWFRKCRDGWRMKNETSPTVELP

SMILES | IC50
N#CCCc1nnc(Cc2nc3ccc(-c4ccccc4)cc3s2)o1 [Compound I-1-27] | 85 nM
N#CCNC(=O)Cc1nnc(Cc2nc3c(-c4ccccc4)cccc3s2)o1 [Compound I-2-197] | 12 nM
N#CC1(NC(=O)Cc2nnc(Cc3nc4c(-c5ccccc5)cccc4s3)o2)CC1 [Compound I-3-11] | 9 nM
O=C(Cc1nnc(Cc2nc3ccc(-c4ccccc4)cc3s2)o1)N1CC(O)C1 [Compound I-3-23] | 400 nM
CS(=O)(=O)NCc1nnc(Cc2nc3ccc(-c4ccccc4)cc3s2)o1 [Compound I-1-23] | 73 nM
N#CC1(NC(=O)Cc2nnc(Cc3nc4ccc(-c5ncc(F)cn5)cc4s3)o2)CC1 [Compound I-3-112] | 44 nM
N#CCNC(=O)Cc1nnc(Cc2cnc3cc(-c4ccccc4)ccc3n2)o1 [Compound I-2-215] | 2500 nM
Cn1cc(-c2ccc3nc(Cc4nnc(CC(=O)NC5(C#N)CC5)o4)sc3c2Cl)cn1 [Compound A-21] | 65 nM
N#CCNC(=O)Cc1nnc(C(F)(F)c2nc3ccc(-c4ccccc4)cc3s2)o1 [Compound I-3-21] | 250 nM
N#CC1(NC(=O)Cc2nnc(Cc3nc4ccc(C5=CCOCC5)cc4s3)o2)CC1 [Compound I-3-48] | 8 nM
N#CC1(NC(=O)Cc2nnc(Cc3nc4ccc(-c5ccc(Cl)cn5)cc4s3)o2)CC1 [Compound I-3-146] | 27 nM
Cn1ccc(-c2ccc3nc(Cc4nnc(CC(=O)NC5(C#N)CC5)o4)sc3c2)n1 [Compound I-2-198] | 15 nM
Cn1cc(-c2ccc3sc(Cc4nnc(CC(=O)NC5(C#N)CC5)o4)nc3c2)cn1 [Compound I-3-4] | 4 nM
N#CC1(NC(=O)Cc2nnc(Cc3nc4ccc(-c5ncccn5)cc4s3)o2)CC1 [Compound I-3-145] | 69 nM
N#CCNC(=O)Cc1nnc(Cc2nc3cc(-c4ccccc4)ccc3o2)o1 [Compound I-1-43] | 390 nM
N#CCNC(=O)Cc1nnc(Cc2nc3ccc(-c4ccccc4)cc3s2)o1 [Compound I-1-3] | 26 nM
O=C(O)CCc1nnc(Cc2nc3ccc(-c4ccccc4)cc3s2)o1 [Compound I-1-9] | 260 nM
N#CCNC(=O)Cc1nnc(Cc2nc3c(Br)cccc3s2)o1 [Compound I-2-196] | 36 nM
N#CC1(NC(=O)Cc2nnc(Cc3nc4ccc(-c5cc6ccccc6s5)cc4s3)o2)CC1 [Compound I-3-93] | 28 nM
COc1cc(-c2cnn(C)c2)cc2sc(Cc3nnc(CC(=O)NC4(C#N)CC4)o3)nc12 [Compound A-25] | 42 nM
O=C(Cc1nnc(Cc2nc3ccc(-c4ccc(F)cc4)cc3s2)o1)NC1(CO)CC1 [Compound I-3-6] | 52 nM

SMILES | IC50
NS(=O)(=O)NCc1nnc(Cc2nc3ccc(-c4ccccc4)cc3s2)o1 [Compound I-1-85] | 6 nM
O=C(NCCc1nnc(Cc2nc3ccc(-c4ccccc4)cc3s2)o1)C1CC1 [Compound I-1-7] | 19 nM
O=C(Cc1nnc(Cc2nc3ccc(-c4ccccc4)cc3s2)o1)NC1COC1 [Compound I-3-30] | 46 nM
N#CCNC(=O)Cc1nnc(Cc2ccc(-c3ccccc3)cn2)o1 [Compound I-2-216] | 23000 nM
Cc1ccc(-c2ccc3nc(Cc4nnc(CC(=O)NC5(C#N)CC5)o4)sc3c2F)s1 [Compound A-9] | 11 nM
Cn1cc(-c2ccc3nc(Cc4nnc(CC(=O)NC5(C#N)CC5)o4)sc3n2)cn1 [Compound A-19] | 110 nM
N#CC1(NC(=O)Cc2nnc(Cc3nc4ccc(-c5ccc(F)s5)cc4s3)o2)CC1 [Compound I-3-163] | 9 nM
O=C(Cc1nnc(Cc2nc3ccc(-c4ccccc4)cc3s2)o1)N1CCOCC1 [Compound I-1-82] | 52 nM
CC(C#N)NC(=O)Cc1nnc(Cc2nc3ccc(-c4ccccc4)cc3s2)o1 (stereo not drawn) [Compound I-3-37] | 2 nM
N#CC1(NC(=O)Cc2nnc(Cc3nc4ccc(-c5ccc(Cl)cc5)c(F)c4s3)o2)CC1 [Compound A-13] | 22 nM
N#CCNC(=O)Cc1nnc(Cc2ccc3cc(-c4ccccc4)ccc3n2)o1 [Compound I-2-204] | 190 nM
N#CC1(NC(=O)Cc2nnc(Cc3nc4ccc(-c5ccc(Cl)s5)cc4s3)o2)CC1 [Compound I-3-56] | 4 nM
O=C(Cc1nnc(Cc2nc3ccc(-c4ccccc4)cc3s2)o1)Nc1ccccc1 [Compound I-1-83] | 5 nM
N#CC1(NC(=O)Cc2nnc(Cc3nc4ccc(-c5ccccn5)cc4s3)o2)CC1 [Compound I-3-1] | 11 nM
O=C(O)Cc1nnc(Cc2nc3ccc(-c4ccccc4)cc3s2)o1 [Compound I-1-2] | 120 nM
O=C(Cc1nnc(Cc2nc3c(-c4ccccc4)cccc3s2)o1)NC1(CO)CC1 [Compound I-3-12] | 78 nM
Cc1ccc(-c2ccc3nc(Cc4nnc(CC(=O)NC5(C#N)CC5)o4)sc3n2)s1 [Compound A-14] | 160 nM
N#CC1(NC(=O)Cc2nnc(Cc3nc4ccc(Cc5ccc(F)cc5)cc4s3)o2)CC1 [Compound I-3-41] | 14 nM
N#CC1(NC(=O)Cc2nnc(Cc3nc4ccc(-c5ccccc5)c(Cl)c4s3)o2)CC1 [Compound A-17] | 41 nM
O=C(Cc1nnc(Cc2nc3ccc(-c4ccccc4)cc3s2)o1)NCCO [Compound I-1-31] | 83 nM
N#CC1(NC(=O)Cc2nnc(Cc3nc4cnc(-c5ccccc5)cc4s3)o2)CC1 [Compound A-10] | 8 nM
